In patent US6632807B1, “(2R,4S)-(−)-[N-(4-diethoxyphosphorylmethyl)phenyl]-1,2,4,5- tetrahydro-4-methyl-7,8-methylenedioxy-5-oxo-3-benzothiepin-2-carboxamide” (Takeda Chemical Industries, Ltd., priority 1994, dated 2003):

Columns and labels:
[1] = tested on: stromal cells prepared from the femoral bone marrow of a normal rat; experiment: Osteogenesis-promoting action: alkaline phosphatase activity in rat bone marrow stromal cells; format: cell-based; details: 10 to 14 days cultivation, mean ±SE, control 113.7 ± 8.1
Description: Using stromal cells prepared from the femoral bone marrow of a normal rat, alkaline phosphatase activity was determined as an index of osteogenesis. Specifically, stromal cells, prepared from the femoral bone marrow of a 7-week-old male Sprague-Dawley rat by the method of Maniatopoulos et al. [Cell Tissue Research, Vol. 254, p. 317 (1988)], were cultured in an α-MEM (minimum essential medium) solution containing both dexamethasone (10^−7 M) and β-glycerophosphoric acid (10^−2 M) to obtain mineralized bone-like tissue. One week later, the test compound (10^−6 M or 10^−5 M) was added to the confluent cells, followed by 10 to 14 more days of cultivation in the above culture broth. After washing with phosphate buffer, the cells were homogenized with 0.2% Nonidet P-40 and centrifuged at 3,000 rpm for 10 minutes. The resulting supernatant was assayed for alkaline phosphatase activity by the method of Lowry et al. [Journal of Biological Chemistry, Vol. 207, p. 19 (1954)]. The values obtained are given in mean ±SE in Table 1. The data were statistically analyzed by Student's t-test.

SMILES | melting point | Alkaline Phosphatase Activity ([1]; test compound 10^−5 M) | Alkaline Phosphatase Activity ([1]; test compound 10^−6 M)
COP(=O)(Cc1ccc(NC(=O)[C@H]2Cc3cc4c(cc3C(=O)[C@H](C)S2)OCO4)cc1)OC | 198 to 199 °C |  | 
CCOP(=O)(Cc1ccc(NC(=O)[C@@H]2Cc3cc4c(cc3C(=O)[C@@H](C)S2)OCO4)cc1)OCC | 183 to 184 °C |  | 
CCOP(=O)(Cc1ccc(NC(=O)[C@H]2Cc3cc4c(cc3C(=O)[C@H](C)S2)OCO4)cc1)OCC [Example 1, (2R,4S)-(−)-N-[4-(Diethoxyphosphorylmethyl)phenyl]-1,2,4,5-tetrahydro-4-methyl-7,8-methylenedioxy-5-oxo-3-benzothiepin-2-carboxamide] |  | 1635.5 ± 169.7 nmol p-nitrophenol/min/well | 682.5 ± 123.2 nmol p-nitrophenol/min/well
